From patent publication US20240092825A1, “CERTAIN CHEMICAL ENTITIES, COMPOSITIONS, AND METHODS” (priority 2021, published 2024)
Structures can show the parent of a compound that is named as a salt.

How the values were obtained:
[1] = Long-term stability test of Crystalline Form I, storage at 25° C./60% RH (open); format: physicochemical; conditions: for Appearance / DSC / Purity / XRPD: 25° C./60% RH (open)
Experimental: (§1) X-ray powder diffraction (XRPD) patterns were obtained on a Bruker D8 Advance. A CuK source (=1.54179 angstrom) operating minimally at 40 kV and 40 mA scans each sample between 3 and 40 degrees 2-theta. The scanning rate is 10 degrees 2-theta per minute and the sample rotation speed is 15 revolutions per minute.
(§2) Differential scanning calorimetry analysis was carried out on a TA Instrument DSC unit (TA Q2000). Samples were heated in non-hermetic aluminum pans from ambient to 260° C. at 10° C./min.
(§3) Crystalline Form I was not changed after storage at 40° C./75% RH for 6 months, or storage at 25° C./60% RH for 36 months.

[2] = Accelerated stability test of Crystalline Form I, storage at 40° C./75% RH (open); format: physicochemical; conditions: for Appearance / DSC / Purity / XRPD: 40° C./75% RH (open)
Experimental: as §1, §2, §3

## C[C@]12CC[C@H](OC(=O)N3CCNCC3)C[C@H]1CC[C@@H]1[C@@H]2CC[C@]2(C)[C@@H](c3ccc(=O)oc3)CC[C@]12O [Crystalline Form I, (3S,5R,8R,9S,10S,13R,14S,17R)-14-hydroxy-10,13-dimethyl-17-(2-oxo-2H-pyran-5-yl)hexadecahydro-1H-cyclopenta[a]phenanthren-3-yl piperazine-1-carboxylate maleate]
[1]; 0 month
  Appearance: White powder
  DSC: 233.84° ° C.
  Purity: 99.86%
  XRPD: Form I
[1]; 12 months
  Appearance: White powder
  DSC: 234.41° ° C.
  Purity: 99.87%
  XRPD: Form I
[1]; 24 months
  Appearance: White powder
  DSC: 232.9° ° C.
  Purity: 99.91%
  XRPD: Form I
[1]; 36 months
  Appearance: White powder
  DSC: 233.6° ° C.
  Purity: 100.00%
  XRPD: Form I
[1]; storage at 25° C./60% RH for 36 months
  Change of crystalline form after storage: not changed
[2]; 0 month
  Appearance: White powder
  DSC: 233.84° ° C.
  Purity: 99.86%
  XRPD: Form I
[2]; 6 months
  Appearance: White powder
  DSC: 234.28° ° C.
  Purity: 99.91%
  XRPD: Form I
[2]; storage at 40° C./75% RH for 6 months
  Change of crystalline form after storage: not changed
